Data reported in PubChem BioAssay AID1996.
Values after ≈ are worked out from the molar mass of the structure shown.

Details: buffer; pH 7.4; 200.0 µM

Row | Structure (SMILES) | solubility kinetic
1 | CN(C(=O)Cn1cc(C#N)c2ccccc21)c1ccccc1 | 7.4 µg/mL (≈ 25.6 µM)
2 | CCN(Cc1cc(=O)oc2cc(C)ccc12)c1ccccc1 | 2 µg/mL (≈ 6.82 µM)
3 | CCn1cc(CCC(=O)NCCN2CCOCC2)c2ccccc21 | 48.9 µg/mL (≈ 148 µM)
4 | CCN(Cc1ccccc1)C(=O)COc1ccccc1 | > 40.4 µg/mL
5 | Br.COc1cccc(CNCC2CCCO2)c1 (stereo not drawn) | 44.1 µg/mL
6 | CN1C(=O)/C(=C/C=C2\SCCN2C)N(C)C1=S | 8 µg/mL (≈ 29.7 µM)
7 | CCC(C(=O)OC)(C(=O)OC)c1ccc([N+](=O)[O-])cc1 | > 42.2 µg/mL
8 | Cc1ccc(C(=O)Nc2cccc3ccccc23)cc1 | 0.8 µg/mL (≈ 3.06 µM)
9 | CCCCn1c(N)c(N(CC)C(=O)CCNC(=O)c2ccc(Cl)cc2)c(=O)[nH]c1=O | > 65.4 µg/mL
10 | Cc1ccc(C(=O)Nc2cccc(NC(=O)c3cccs3)c2)c(C)c1 | 0.6 µg/mL (≈ 1.71 µM)
11 | COc1ccccc1C(=O)CC(=O)C(=O)Nc1cccc([N+](=O)[O-])c1C | 15.5 µg/mL (≈ 43.5 µM)
12 | CCC(C(=O)Nc1cccnc1Cl)c1ccccc1 (stereo not drawn) | 30.2 µg/mL (≈ 110 µM)
13 | Cc1csc(Nc2ccccc2)[n+]1C.[Br-] | 30.2 µg/mL
14 | COC(=O)c1cc(OC)c(OC)c(OC)c1[N+](=O)[O-] | 38.5 µg/mL (≈ 142 µM)
15 | Cn1c(=O)[nH]c2ncn(C)c2c1=O | > 27 µg/mL
16 | O=C(COC(=O)c1ccco1)Nc1cc(S(=O)(=O)N2CCOCC2)ccc1Cl | 16.4 µg/mL (≈ 38.2 µM)
17 | Cc1cc(OCC(O)CN(C)C(=O)C(C)Oc2ccccc2)ccc1Cl (stereo not drawn) | 45.6 µg/mL (≈ 121 µM)
18 | CC(C)(C)c1csc(Sc2ccc([N+](=O)[O-])cn2)n1 | 1.1 µg/mL (≈ 3.72 µM)
19 | COc1ccc(NC(=S)NCCNC(C)=O)cc1 | 35.4 µg/mL (≈ 132 µM)
20 | CCn1c(SCC(=O)N2CCOCC2)nnc1-c1ccco1 | > 48.4 µg/mL
21 | CN(CC(=O)NCc1ccccc1Cl)CC(=O)Nc1cccc(F)c1 | > 54.6 µg/mL
22 | CCCc1nc(SC)[nH]c(=O)c1C | > 29.7 µg/mL

Row | Structure (SMILES) | solubility kinetic
23 | Cc1ccc(C(O)c2ccc(-n3ccnc3)cc2)cc1 (stereo not drawn) | 39.5 µg/mL (≈ 149 µM)
24 | Cc1cc(=O)oc2cc(OCCSCCN3CCCCC3)ccc12 | > 52.1 µg/mL
25 | COCCCn1c(=O)cc(C)[nH]c1=S | > 32.1 µg/mL
26 | O=C(CSc1ncnc2scc(-c3ccccc3)c12)NC1CCS(=O)(=O)C1 (stereo not drawn) | 58.6 µg/mL (≈ 140 µM)
27 | CC(C)c1ccc(/C=C2\NC(=O)NC2=O)cc1 | 13.9 µg/mL (≈ 60.4 µM)
28 | Cl.NC(CO)C12CC3CC(CC(C3)C1)C2 (stereo not drawn) | > 34.8 µg/mL
29 | COc1cc2c(cc1OC)C(NC(=O)C(F)(F)F)CNC2=O (stereo not drawn) | > 47.7 µg/mL
30 | Cc1cc(C)cc(OCC(=O)NC(C)c2ccccc2)c1 (stereo not drawn) | 28.8 µg/mL (≈ 102 µM)
31 | Cc1ccc(NC(=O)OCCNC(=O)c2ccncc2)cc1 | 44.4 µg/mL (≈ 148 µM)
32 | O=C(COC(=O)Cc1c(Cl)cccc1Cl)NCc1ccco1 | > 51.3 µg/mL
33 | O=C(COc1ccc(F)cc1)Nc1nc2c(s1)CCCC2 | 2.6 µg/mL (≈ 8.49 µM)
34 | CCOc1ccc(C(=O)NCCNC(=O)c2ccc(OCC)cc2)cc1 | 1.5 µg/mL (≈ 4.21 µM)
35 | CCCCNC(=O)CC1NCCNC1=O (stereo not drawn) | > 32 µg/mL
36 | CC(=O)c1ccc(NC(=O)CCCC(=O)c2ccccc2)cc1 | 3.6 µg/mL (≈ 11.6 µM)
37 | CCC(=O)NCCc1nc2cc(NC(=O)c3ccco3)ccc2n1C | 48 µg/mL (≈ 141 µM)
38 | COc1ccc2cc(C#N)c(SCC(=O)Nc3nonc3C)nc2c1 | 3.4 µg/mL (≈ 9.57 µM)
39 | COc1ccc(S(=O)(=O)N2CCCC2)c2ccccc12 | 0.9 µg/mL (≈ 3.09 µM)
40 | COCc1cc(C)nc(Nc2ccccc2OC)c1C#N | 0.3 µg/mL (≈ 1.06 µM)
41 | O=S(=O)(O)c1cccnc1SCc1ccccc1 | 41 µg/mL (≈ 146 µM)
42 | O=C(CSc1cccc2cccnc12)N/N=C/c1ccncc1 | > 48.4 µg/mL
43 | COc1cccc(C(=O)NCc2ccco2)c1 | > 34.7 µg/mL
